Experimental data: patent US20240116951A1, “HETEROCYCLIC COMPOUNDS AND USES THEREOF” (Kumquat Biosciences Inc., priority 2022, published 2024)

Columns and labels:
Type in all cases: binding
KRAS G12S = biological target: T1, KRAS G12S (Homo sapiens, UniProt P01116, G12S); assay: HTRF assay of K-Ras G12S interaction with SOS1 (PPI-HTRF); conditions: 5 nM KRAS G12S, read-out: PPI-HTRF-5 nM KRAS G12S
T1 construct: made in house; host or cells: E. coli, e.g. BL21 (DE3)
Summary of the method: (§1)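 HTRF readout of GST-tagged K-Ras (WT or mutant) binding to His-hSOS1, using anti-GST-Eu donor and anti-6His-XL665 acceptor in HEPES pH 7.4 buffer with DTT, BSA and Igepal. Read after about 10 min or longer; duplicate compound dilutions from 10 μM. IC50 from 665/620 nm ratio.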

KRAS G12D = biological target: T2, KRAS G12D (Homo sapiens, UniProt P01116, G12D); assay: HTRF assay of K-Ras G12D interaction with SOS1 (PPI-HTRF); conditions: HTRF, 5 nM KRAS G12D; read-out: PPI-HTRF-5 nM KRAS G12D
T2 construct: made in house; host or cells: E. coli, e.g. BL21 (DE3)
Summary of the method: as §1

KRAS WT = biological target: T3, KRAS WT (Homo sapiens, UniProt P01116); assay: HTRF assay of wildtype K-Ras interaction with SOS1 (PPI-HTRF); conditions: HTRF, 5 nM KRAS WT; read-out: PPI-HTRF-5 nM KRAS WT
T3 construct: made in house; host or cells: E. coli, e.g. BL21 (DE3)
Summary of the method: as §1

T1 sequence (P01116 1-188 isoform P01116-2 G12S): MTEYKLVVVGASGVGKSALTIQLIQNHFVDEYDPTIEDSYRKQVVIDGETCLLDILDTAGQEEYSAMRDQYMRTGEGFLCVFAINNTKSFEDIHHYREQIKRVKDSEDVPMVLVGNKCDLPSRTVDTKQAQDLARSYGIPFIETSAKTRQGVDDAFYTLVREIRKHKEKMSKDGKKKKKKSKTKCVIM
T3 sequence (P01116 1-188 isoform P01116-2): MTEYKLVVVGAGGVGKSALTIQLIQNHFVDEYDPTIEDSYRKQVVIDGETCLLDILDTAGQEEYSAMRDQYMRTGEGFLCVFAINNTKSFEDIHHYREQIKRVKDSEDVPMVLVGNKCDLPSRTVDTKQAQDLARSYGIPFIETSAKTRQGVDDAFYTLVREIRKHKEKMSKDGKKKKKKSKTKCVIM
T2 sequence (P01116 1-188 isoform P01116-2 G12D): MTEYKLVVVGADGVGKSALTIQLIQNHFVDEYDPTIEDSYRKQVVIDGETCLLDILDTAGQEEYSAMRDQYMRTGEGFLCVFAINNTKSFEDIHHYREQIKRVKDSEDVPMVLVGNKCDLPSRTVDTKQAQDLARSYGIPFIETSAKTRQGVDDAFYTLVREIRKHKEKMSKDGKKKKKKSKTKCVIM

Structure (SMILES)	IC50 (KRAS G12S)	IC50 (KRAS G12D)	IC50 (KRAS WT)
N#Cc1cn(C(=O)N2CCC23CCN(c2nc(OC[C@@]45CCCN4C[C@H](F)C5)nc4c(F)c(-c5ccc(F)c6sc(N)c(C#N)c56)c(Cl)cc24)C3)cn1 (stereo partly drawn) [Compound 310, 1-(6-(7-(2-amino-3-cyano-7-fluorobenzo[b]thiophen-4-yl)-6-chloro-8-fluoro-2-(((2R,7aS)-2-fluorotetrahydro-1H-pyrrolizin-7a(5H)-yl)methoxy)quinazolin-4-yl)-1,6-diazaspiro[3.4]octane-1-carbonyl)-1H-imidazole-4-carbonitrile]	< 5 µM	< 5 µM	< 5 µM
N#CCc1ncn(C(=O)N2CCC23CCN(c2nc(OC[C@@]45CCCN4C[C@H](F)C5)nc4c(F)c(-c5ccc(F)c6sc(N)c(C#N)c56)c(Cl)cc24)C3)n1 (stereo partly drawn) [Compound 320, 2-amino-4-(6-chloro-4-(1-(3-(cyanomethyl)-1H-1,2,4-triazole-1-carbonyl)-1,6-diazaspiro[3.4]octan-6-yl)-8-fluoro-2-(((2R,7aS)-2-fluorotetrahydro-1H-pyrrolizin-7a(5H)-yl)methoxy)quinazolin-7-yl)-7-fluorobenzo[b]thiophene-3-carbonitrile]	< 5 µM	< 5 µM	< 5 µM
Cc1nc(C)n(C(=O)N2CC[C@]23CCN(c2nc(OC[C@@]45CCCN4C[C@H](F)C5)nc4c(F)c(-c5ccc(F)c6sc(N)c(C#N)c56)c(Cl)cc24)C3)n1 [Compound 306, 2-amino-4-(6-chloro-4-((S)-1-(3,5-dimethyl-1H-1,2,4-triazole-1-carbonyl)-1,6-diazaspiro[3.4]octan-6-yl)-8-fluoro-2-(((2R,7aS)-2-fluorotetrahydro-1H-pyrrolizin-7a(5H)-yl)methoxy)quinazolin-7-yl)-7-fluorobenzo[b]thiophene-3-carbonitrile]	< 5 µM	< 5 µM	< 5 µM
N#Cc1c(N)sc2c(F)ccc(-c3c(Cl)cc4c(N5CCC6(CCN6C(=O)OC(CO)C(F)(F)F)C5)nc(OC[C@@]56CCCN5C[C@H](F)C6)nc4c3F)c12 (stereo partly drawn) [Compound 345, 1,1,1-trifluoro-3-hydroxypropan-2-yl 6-(7-(2-amino-3-cyano-7-fluorobenzo[b]thiophen-4-yl)-6-chloro-8-fluoro-2-(((2R,7aS)-2-fluorotetrahydro-1H-pyrrolizin-7a(5H)-yl)methoxy)quinazolin-4-yl)-1,6-diazaspiro[3.4]octane-1-carboxylate]	< 5 µM	< 5 µM	< 5 µM
N#Cc1c(N)sc2c(F)ccc(-c3c(Cl)cc4c(N5CCC6(CCCN6C(=O)[C@@H]6N[C@H]6C6CC6)CC5)nc(OC[C@@]56CCCN5C[C@H](F)C6)nc4c3F)c12 [Compound 295, 2-amino-4-(6-chloro-4-(1-((2R,3S)-3-cyclopropylaziridine-2-carbonyl)-1,8-diazaspiro[4.5]decan-8-yl)-8-fluoro-2-(((2R,7aS)-2-fluorotetrahydro-1H-pyrrolizin-7a(5H)-yl)methoxy)quinazolin-7-yl)-7-fluorobenzo[b]thiophene-3-carbonitrile]	< 5 µM	< 5 µM	< 5 µM

The next lines start with the values.

IC50 (KRAS G12S)	IC50 (KRAS G12D)	IC50 (KRAS WT)	Structure (SMILES)
< 5 µM	< 5 µM	< 5 µM	CN1CCC[C@H]1COc1nc(N2CCC3(CC2)NC(=O)NC3=O)c2cc(Cl)c(-c3cccc4sc(N)nc34)c(F)c2n1 [Compound 249, 8-(7-(2-aminobenzo[d]thiazol-4-yl)-6-chloro-8-fluoro-2-(((S)-1-methylpyrrolidin-2-yl)methoxy)quinazolin-4-yl)-1,3,8-triazaspiro[4.5]decane-2,4-dione]
< 5 µM	< 5 µM	< 5 µM	N#Cc1c(N)sc2c(F)ccc(-c3c(Cl)cc4c(N5CCOCC6(CCN6C(=O)n6cncn6)C5)nc(OC[C@@]56CCCN5C[C@H](F)C6)nc4c3F)c12 (stereo partly drawn) [Compound 351, 4-(4-(1-(1H-1,2,4-triazole-1-carbonyl)-6-oxa-1,9-diazaspiro[3.6]decan-9-yl)-6-chloro-8-fluoro-2-(((2R,7aS)-2-fluorotetrahydro-1H-pyrrolizin-7a(5H)-yl)methoxy)quinazolin-7-yl)-2-amino-7-fluorobenzo[b]thiophene-3-carbonitrile]
